Tests used:
[1] = target: hlipocalin-2 (human lipocalin-2, neutrophil gelatinase-associated lipocalin) (Homo sapiens, UniProt P80188); experiment: isothermal titration calorimetry; type: binding
nonreducing SDS-PAGE = target: the molecule itself; experiment: nonreducing SDS-PAGE

Sequence of hlipocalin-2 (human lipocalin-2, neutrophil gelatinase-associated lipocalin) (P80188 21-198): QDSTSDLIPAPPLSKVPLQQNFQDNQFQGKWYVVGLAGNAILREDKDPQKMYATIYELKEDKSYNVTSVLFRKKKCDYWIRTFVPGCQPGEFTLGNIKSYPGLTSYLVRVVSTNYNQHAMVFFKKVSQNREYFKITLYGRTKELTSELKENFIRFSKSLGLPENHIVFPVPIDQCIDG

Kd [1] [µM] | Molecule | ratio of homodimer/monomer (nonreducing SDS-PAGE) [homodimer/monomer]
1470 | CCCCCCCC/C=C\CCCCCCCC(=O)O [oleic acid] | –
0.487 | CCCCC/C=C\C/C=C\CCCCCCCC(=O)O [linoleic acid] | –
– | human lipocalin‐2 mutant C87A (cysteine 87 replaced by alanine) (natural protein, UniProt P80188 21-198, looked up, contains a significantly lesser amount of polyamines than wild type) QDSTSDLIPAPPLSKVPLQQNFQDNQFQGKWYVVGLAGNAILREDKDPQKMYATIYELKEDKSYNVTSVLFRKKKCDYWIRTFVPGAQPGEFTLGNIKSYPGLTSYLVRVVSTNYNQHAMVFFKKVSQNREYFKITLYGRTKELTSELKENFIRFSKSLGLPENHIVFPVPIDQCIDG | > 10

From PMC4187505 (Journal of the American Heart Association: Cardiovascular …, 2014)
